Measurements taken from the supplement of paper PMC10307832.

Legend:
Assay in all cases: relative viability (nuclei count vs DMSO), 5 days (fraction); higher = more cells survive
ALW-II-49-7 + Olaparib = compound: Cc1ccc(C(=O)Nc2cccc(C(F)(F)F)c2)cc1Nc1cncc(C(N)=O)c1 [ALW-II-49-7] + O=C(c1cc(Cc2n[nH]c(=O)c3ccccc23)ccc1F)N1CCN(C(=O)C2CC2)CC1 [Olaparib] (partner 8 µM)
How it was run: (§1)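 Lung cancer cell lines were pin-tool dosed in 1536-well plates on the day after seeding, with either a lone drug or a fixed anchor-drug dose plus five library-drug doses (not always all listed) in √10 steps. Nuclei were counted on 4× images after 5 days. Relative viability is the ratio of treated-well to vehicle-well nuclei counts, with each value a median of duplicate plates.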

XMD13-2 + Linsitinib = compound: C1CC1C(=O)NC2=NNC3=C2C=CC(=C3)C4=CC(=CC=C4)C(=O)NC5CC5 [XMD13-2] + C[C@]1(O)C[C@@H](c2nc(-c3ccc4ccc(-c5ccccc5)nc4c3)c3c(N)nccn32)C1 [Linsitinib] (partner 1 µM)
How it was run: as §1

XMD13-2 + Lapatinib = compound: C1CC1C(=O)NC2=NNC3=C2C=CC(=C3)C4=CC(=CC=C4)C(=O)NC5CC5 [XMD13-2] + CS(=O)(=O)CCNCc1ccc(-c2ccc3ncnc(Nc4ccc(OCc5cccc(F)c5)c(Cl)c4)c3c2)o1 [Lapatinib] (partner 2 µM)
How it was run: as §1

Dasatinib + Vorinostat = compound: Cc1nc(Nc2ncc(C(=O)Nc3c(C)cccc3Cl)s2)cc(N2CCN(CCO)CC2)n1 [Dasatinib] + O=C(CCCCCCC(=O)Nc1ccccc1)NO [Vorinostat] (partner 1 µM)
How it was run: as §1

UMC-11 was tested, and the relative viability (ALW-II-49-7 + Olaparib; first compound 0.08 µM) was 0.428, the relative viability (ALW-II-49-7 + Olaparib; first compound 0.253 µM) was 0.428 and the relative viability (ALW-II-49-7 + Olaparib; first compound 0.8 µM) was 0.413. For the same cell line, the relative viability (ALW-II-49-7 + Olaparib; first compound 2.53 µM) was 0.345, the relative viability (ALW-II-49-7 + Olaparib; first compound 8 µM) was 0.342 and the relative viability (XMD13-2 + Linsitinib; first compound 0.05 µM) was 1.18. It also gave a relative viability (XMD13-2 + Linsitinib; first compound 0.1581 µM) of 0.942, a relative viability (XMD13-2 + Linsitinib; first compound 0.5 µM) of 0.996 and a relative viability (XMD13-2 + Linsitinib; first compound 1.581 µM) of 1.07. It also gave a relative viability (XMD13-2 + Linsitinib; first compound 5 µM) of 1.04, a relative viability (XMD13-2 + Lapatinib; first compound 0.05 µM) of 1.18 and a relative viability (XMD13-2 + Lapatinib; first compound 0.1581 µM) of 0.856. For the same cell line, the relative viability (XMD13-2 + Lapatinib; first compound 0.5 µM) was 1.01, the relative viability (XMD13-2 + Lapatinib; first compound 1.581 µM) was 0.901 and the relative viability (XMD13-2 + Lapatinib; first compound 5 µM) was 1.08. It also gave a relative viability (Dasatinib + Vorinostat; first compound 0.005 µM) of 0.409, a relative viability (Dasatinib + Vorinostat; first compound 0.01581 µM) of 0.289 and a relative viability (Dasatinib + Vorinostat; first compound 0.05 µM) of 0.315. For the same cell line, the relative viability (Dasatinib + Vorinostat; first compound 0.1581 µM) was 0.203 and the relative viability (Dasatinib + Vorinostat; first compound 0.5 µM) was 0.218.
